In ChEMBL document CHEMBL5325391, “Spirolactone-type and enmein-type derivatives as potential anti-cancer agents derived from oridonin” (Bioorg Med Chem, 2022):

What was measured:
[1] = system: K562; experiment: Induction of cell cycle arrest in human K562 cells assessed as accumulation of cells at S phase at 200 nM incubated for 48 hrs by PI staining based flow cytometry analysis (reference value: 18.85%); format: functional
[2] = system: K562; experiment: Induction of ROS generation in human K562 cells at 400 nM incubated for 48 hrs by DCFH-DA staining based flow cytometry analysis (reference value: 4.82%); format: functional
[3] = system: K562; experiment: Induction of apoptosis in human K562 cells assessed as necrotic cells at 100 nM incubated for 48 hrs by Annexin-V and PI staining based flow cytometry analysis (reference value: 1.72%); format: functional
[4] = system: K562; experiment: Induction of cell cycle arrest in human K562 cells assessed as accumulation of cells at S phase at 100 nM incubated for 48 hrs by PI staining based flow cytometry analysis (reference value: 18.85%); format: functional
[5] = system: K562; experiment: Antiproliferative activity against human K562 cells assessed as reduction in cell growth after 72 hrs by MTT assay; format: functional, cell-based; conditions: K562, 72 h
[6] = system: SW480; experiment: Antiproliferative activity against human SW480 cells assessed as reduction in cell growth after 72 hrs by MTT assay; format: functional, cell-based; conditions: SW480, 72 h
[7] = system: K562; experiment: Induction of cell cycle arrest in human K562 cells assessed as accumulation of cells at G1 phase at 100 nM incubated for 48 hrs by PI staining based flow cytometry analysis (reference value: 68.84%); format: functional
[8] = system: K562; experiment: Induction of cell cycle arrest in human K562 cells assessed as downregulation of cdc-25c expression incubated for 48 hrs by Western blot analysis; format: functional, cell-based; conditions: dose 100-400 nM
[9] = system: MDA-MB-231; experiment: Antiproliferative activity against human MDA-MB-231 cells assessed as reduction in cell growth after 72 hrs by MTT assay; format: functional, cell-based; conditions: MDA-MB-231, 72 h
[10] = system: K562; experiment: Induction of apoptosis in human K562 cells assessed as viable cells at 200 nM incubated for 48 hrs by Annexin-V and PI staining based flow cytometry analysis (reference value: 93.87%); format: functional; conditions: read-out: Activity
[11] = system: K562; experiment: Potency index, ratio of oridonin IC50 to compound IC50 for antiproliferative activity against human K562 cells after 72 hrs by MTT assay; format: functional
[12] = system: SMMC-7721; experiment: Antiproliferative activity against human SMMC-7721 cells assessed as reduction in cell growth after 72 hrs by MTT assay; format: functional, cell-based; conditions: SMMC-7721, 72 h
[13] = system: K562; experiment: Induction of cell cycle arrest in human K562 cells assessed as accumulation of cells at G1 phase at 200 nM incubated for 48 hrs by PI staining based flow cytometry analysis (reference value: 68.84%); format: functional
[14] = Cytotoxicity against human L02 cells incubated for 72 hrs by MTT assay; format: toxicity, cell-based
[15] = system: K562; experiment: Induction of ROS generation in human K562 cells incubated for 48 hrs by DCFH-DA staining based flow cytometry analysis; format: functional, cell-based; conditions: dose […]
[16] = system: K562; experiment: Induction of cell cycle arrest in human K562 cells assessed as downregulation of cdc-2 expression incubated for 48 hrs by Western blot analysis; format: functional, cell-based; conditions: dose 100-400 nM
[17] = system: K562; experiment: Induction of apoptosis in human K562 cells assessed as early apoptotic cells at 400 nM incubated for 48 hrs by Annexin-V and PI staining based flow cytometry analysis (reference value: 1.98%); format: functional
[18] = system: K562; experiment: Induction of cell cycle arrest in human K562 cells assessed as accumulation of cells at S phase at 400 nM incubated for 48 hrs by PI staining based flow cytometry analysis (reference value: 18.85%); format: functional
[19] = system: K562; experiment: Induction of apoptosis in human K562 cells assessed as early apoptotic cells at 200 nM incubated for 48 hrs by Annexin-V and PI staining based flow cytometry analysis (reference value: 1.98%); format: functional
[20] = system: Cell membrane; experiment: Induction of mitochondrial membrane depolarization in human K562 cells incubated for 48 hrs by JC-1 staining based flow cytometry analysis; conditions: Mitochondria, dose […]
[21] = system: K562; experiment: Induction of cell cycle arrest in human K562 cells assessed as accumulation of cells at G2 phase at 100 nM incubated for 48 hrs by PI staining based flow cytometry analysis (reference value: 12.31%); format: functional
[22] = system: K562; experiment: Induction of apoptosis in human K562 cells assessed as viable cells at 400 nM incubated for 48 hrs by Annexin-V and PI staining based flow cytometry analysis (reference value: 93.87%); format: functional; conditions: read-out: Activity
[23] = system: K562; experiment: Induction of cell cycle arrest in human K562 cells assessed as accumulation of cells at G1 phase at 400 nM incubated for 48 hrs by PI staining based flow cytometry analysis (reference value: 68.84%); format: functional
[24] = system: K562; experiment: Induction of apoptosis in human K562 cells assessed as necrotic cells at 400 nM incubated for 48 hrs by Annexin-V and PI staining based flow cytometry analysis (reference value: 1.72%); format: functional
[25] = system: K562; experiment: Induction of apoptosis in human K562 cells assessed as late apoptotic cells at 100 nM incubated for 48 hrs by Annexin-V and PI staining based flow cytometry analysis (reference value: 2.42%); format: functional
[26] = system: Cell membrane; experiment: Induction of mitochondrial membrane depolarization in human K562 cells assessed as lower right phase cells at […] incubated for 48 hrs by JC-1 staining based flow cytometry analysis; conditions: Mitochondria
[27] = system: K562; experiment: Induction of apoptosis in human K562 cells assessed as early apoptotic cells at 100 nM incubated for 48 hrs by Annexin-V and PI staining based flow cytometry analysis (reference value: 1.98%); format: functional
[28] = system: K562; experiment: Induction of cell cycle arrest in human K562 cells assessed as downregulation of cyclin-B1 expression incubated for 48 hrs by Western blot analysis; format: functional, cell-based; conditions: dose 100-400 nM
[29] = system: K562; experiment: Induction of apoptosis in human K562 cells assessed as viable cells at 100 nM incubated for 48 hrs by Annexin-V and PI staining based flow cytometry analysis (reference value: 93.87%); format: functional; conditions: read-out: Activity
[30] = Selectivity index, ratio of IC50 for human L02 cells to IC50 for human SMMC-7721 cells; format: toxicity; conditions: L02 cells versus SMMC-7721 cells, read-out: Ratio IC50
[31] = system: K562; experiment: Induction of cell cycle arrest in human K562 cells assessed as accumulation of cells at G2 phase at 400 nM incubated for 48 hrs by PI staining based flow cytometry analysis (reference value: 12.31%); format: functional
[32] = system: K562; experiment: Induction of apoptosis in human K562 cells assessed as necrotic cells at 200 nM incubated for 48 hrs by Annexin-V and PI staining based flow cytometry analysis (reference value: 1.72%); format: functional
[33] = system: K562; experiment: Induction of apoptosis in human K562 cells assessed as late apoptotic cells at 400 nM incubated for 48 hrs by Annexin-V and PI staining based flow cytometry analysis (reference value: 2.42%); format: functional
[34] = system: K562; experiment: Induction of apoptosis in human K562 cells assessed as late apoptotic cells at 200 nM incubated for 48 hrs by Annexin-V and PI staining based flow cytometry analysis (reference value: 2.42%); format: functional
[35] = system: K562; experiment: Induction of cell cycle arrest in human K562 cells assessed as accumulation of cells at G2 phase at 200 nM incubated for 48 hrs by PI staining based flow cytometry analysis (reference value: 12.31%); format: functional

Q: With `C=C1C(=O)[C@@]23C(=O)OC[C@]4(C=CCC(C)(C)[C@H]4C=O)[C@@H]2CC[C@@H]1[C@H]3OC(=O)/C=C/c1cccnc1` as the molecule, how does the Activity [1] read?
A: 24.8%

Q: What about the Activity [2] of the same molecule?
A: 27.83%

Q: What about the Activity [3] of the same molecule?
A: 3.37%

Q: What about the Activity [4] of the same molecule?
A: 20.6%

Q: And the IC50 [5]?
A: 400 nM

Q: And the IC50 [6]?
A: 480 nM

Q: And the Activity [7]?
A: 64.33%

Q: What about the Activity [8] of the same molecule?
A: Dose-Dependent Effect

Q: And the IC50 [9]?
A: 980 nM

Q: And the viability at 0.2 µM [10]?
A: 80.9%

Q: What about the “Ratio IC50” value [11] of the same molecule?
A: 10

Q: What about the IC50 [12] of the same molecule?
A: 560 nM

Q: And the Activity [13]?
A: 61.3%

Q: And the IC50 at 72 h [14]?
A: 4280 nM

Q: And the Activity [15]?
A: Dose-Dependent Effect

Q: What about the Activity [16] of the same molecule?
A: Dose-Dependent Effect

Q: And the Activity [17]?
A: 9.41%

Q: And the Activity [18]?
A: 24.28%

Q: And the Activity [19]?
A: 7.6%

Q: What about the Activity [20] of the same molecule?
A: Dose-Dependent Effect

Q: And the Activity [21]?
A: 15.07%

Q: And the viability at 0.4 µM [22]?
A: 68.7%

Q: What about the Activity [23] of the same molecule?
A: 55.2%

Q: What about the Activity [24] of the same molecule?
A: 6.37%

Q: What about the Activity [25] of the same molecule?
A: 5.59%

Q: What about the Activity [26] of the same molecule?
A: 28.4%

Q: And the Activity [27]?
A: 5.01%

Q: And the Activity [28]?
A: Dose-Dependent Effect

Q: And the viability at 0.1 µM [29]?
A: 86%

Q: What about the selectivity ratio [30] of the same molecule?
A: 7.64

Q: What about the Activity [31] of the same molecule?
A: 20.53%

Q: And the Activity [32]?
A: 4.23%

Q: And the Activity [33]?
A: 15.5%

Q: And the Activity [34]?
A: 7.23%

Q: And the Activity [35]?
A: 13.9%
